From ChEMBL document CHEMBL4699509, “Asaroidoxazines from the Roots of Asarum asaroides Induce Apoptosis in Human Neuroblastoma Cells” (J Nat Prod, 2020)
The source made the active and inactive calls. The calls are words filed in the database; no cut-off is given here.

Assays:
[1] = test system: SH-SY5Y; experiment: Cytotoxicity against human SH-SY5Y cells assessed as reduction in cell viability by CCK8 assay; type: functional, cell-based
[2] = test system: SH-SY5Y; experiment: Induction of apoptosis in human SH-SY5Y cells assessed as increase in caspace-3/7 expression at 1 to 30 uM after 12 hrs by Caspase-Glo assay; type: functional, cell-based; conditions: dose microM 1-30, time 12.0 hrs
[3] = test system: SH-SY5Y; experiment: Induction of apoptosis in human SH-SY5Y cells assessed as decrease in ATP level at 1 uM by CellTiter-Glo assay relative to control; type: functional; design: scale not given: the % may be the effect or the level left
[4] = test system: SH-SY5Y; experiment: Induction of apoptosis in human SH-SY5Y cells assessed as nuclear condensation at 30 uM by Hoechst 33342 staining based inverted fluorescent microscopic method (reference value: 2.1%); type: functional
[5] = test system: SH-SY5Y; experiment: Induction of apoptosis in human SH-SY5Y cells assessed as nuclear condensation at 1 uM by Hoechst 33342 staining based inverted fluorescent microscopic method (reference value: 2.1%); type: functional
[6] = test system: SH-SY5Y; experiment: Induction of apoptosis in human SH-SY5Y cells assessed as nuclear condensation at 1 to 30 uM by Hoechst 33342 staining based inverted fluorescent microscopic method; type: functional, cell-based; conditions: dose microM 1-30
[7] = test system: SH-SY5Y; experiment: Induction of apoptosis in human SH-SY5Y cells assessed as decrease in ATP level at 30 uM by CellTiter-Glo assay relative to control; type: functional; design: scale not given: the % may be the effect or the level left
[8] = test system: SH-SY5Y; experiment: Induction of apoptosis in human SH-SY5Y cells assessed as nuclear fragmentation at 1 to 30 uM by Hoechst 33342 staining based inverted fluorescent microscopic method; type: functional, cell-based; conditions: dose microM 1-30

| Compound | Activity [1] | IC50 [1] [µM] | Activity [2] | Activity [3] [%] | Activity [4] [%] | Activity [5] [%] | Activity [6] | Activity [7] [%] | Activity [8] |
| --- | --- | --- | --- | --- | --- | --- | --- | --- | --- |
| COc1cc(OC)c2c(c1)-c1c3c(cc4c(=O)onc(c14)[C@H]2SCC(N)=O)OCO3 | Dose-dependent effect | 11.2 | – | – | – | – | – | – | – |
| COc1ccc(OC)c2c1cc1c3c(cc4c(c32)OCO4)C(=O)N1 | Dose-dependent effect | 21.2 | – | – | – | – | – | – | – |
| COc1ccc(OC)c2c1-c1c3c(cc4c(=O)onc(c14)[C@H]2SCC(N)=O)OCO3 | Dose-dependent effect | 2.7 | Active | 57.8 | 70.9 | 36.8 | Active | 51.4 | Active |
